Results on 14 compounds are retold here after patent US7524853B2 (Solvay Pharmaceuticals B.V., priority 2003, dated 2009).

By inhibition is commonly meant the drop in the measured response relative to a control, in per cent.

Common to all, as to type: cell-based
Assay [1] concerns the target T1, 17β-hydroxysteroid dehydrogenase type 2 (17β-HSD type 2) (Homo sapiens, UniProt P37059).
T1 construct: expressed in transfected cells; host or cells: MCF-7
T1 sequence (P37059 1-387): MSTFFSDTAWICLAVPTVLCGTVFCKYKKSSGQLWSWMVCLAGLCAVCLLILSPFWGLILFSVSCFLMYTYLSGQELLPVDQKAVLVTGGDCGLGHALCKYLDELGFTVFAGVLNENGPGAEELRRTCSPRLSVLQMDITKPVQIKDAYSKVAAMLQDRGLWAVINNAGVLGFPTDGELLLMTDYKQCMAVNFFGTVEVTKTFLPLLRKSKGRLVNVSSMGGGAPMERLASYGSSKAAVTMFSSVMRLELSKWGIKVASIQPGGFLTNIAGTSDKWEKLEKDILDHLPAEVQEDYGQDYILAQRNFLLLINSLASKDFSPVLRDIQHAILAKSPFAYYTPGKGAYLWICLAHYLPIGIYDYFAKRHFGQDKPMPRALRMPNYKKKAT
Put plainly: Inhibition of 17β-HSD type 2 in MCF-7 cells stably expressing the isoenzyme (tritium labeled estradiol conversion, HPLC). To be noted: MCF-7 cells expressing 17β-HSD type 2, 2 nM tritium labeled estradiol; for inhibition at 1 µM / inhibition at 10 µM: MCF7; for inhibition at 1 µM / % Inhibition HSD2 1 μM: 1 μM test compound; for inhibition at 1 µM: read-out: % Inhibition HSD2 1 μM; for inhibition at 10 µM / % Inhibition HSD2 10 μM: 10 μM test compound; for inhibition at 10 µM: read-out: % Inhibition HSD2 10 μM. The essentials: (§1)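 Each isoenzyme was stably expressed in its own MCF-7 line, and cells were incubated in growth medium with test compound and 2 nM tritiated substrate: estrone (type 1), estradiol (type 2), androstenedione (type 3). Medium was sampled after a fixed time, TCA-stopped, and analysed by HPLC-flow scintillation; inhibition versus compound-free control, two compound concentrations.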

In assay [2] the target is T2, 17β-hydroxysteroid dehydrogenase type 3 (17β-HSD type 3) (Homo sapiens, UniProt P37058).
T2 construct: expressed in transfected cells; host or cells: MCF-7
T2 sequence (P37058 1-310): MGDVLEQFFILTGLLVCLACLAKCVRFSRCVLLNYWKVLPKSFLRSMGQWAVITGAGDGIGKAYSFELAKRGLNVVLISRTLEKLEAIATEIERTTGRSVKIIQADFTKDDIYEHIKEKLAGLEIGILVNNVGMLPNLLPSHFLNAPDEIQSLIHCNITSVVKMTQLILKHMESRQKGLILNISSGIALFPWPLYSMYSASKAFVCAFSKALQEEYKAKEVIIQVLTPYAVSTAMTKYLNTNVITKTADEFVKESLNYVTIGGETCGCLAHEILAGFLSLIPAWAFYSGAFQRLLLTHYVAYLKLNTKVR
The assay can be described thus: Inhibition of 17β-HSD type 3 in MCF-7 cells stably expressing the isoenzyme (tritium labeled androstenedione conversion, HPLC). To be noted: MCF-7 cells expressing 17β-HSD type 3, 2 nM tritium labeled androstenedione; for inhibition at 1 µM / inhibition at 10 µM: MCF7; for inhibition at 1 µM / % Inhibition HSD3 1 μM: 1 μM test compound; for inhibition at 1 µM: read-out: % Inhibition HSD3 1 μM; for inhibition at 10 µM / % Inhibition HSD3 10 μM: 10 μM test compound; for inhibition at 10 µM: read-out: % Inhibition HSD3 10 μM. In short, it runs like this:
as §1

Assay [3] has as its target T3, 17β-hydroxysteroid dehydrogenase type 1 (17β-HSD type 1) (Homo sapiens, UniProt P14061).
T3 construct: expressed in transfected cells; host or cells: MCF-7
T3 sequence (P14061 1-328): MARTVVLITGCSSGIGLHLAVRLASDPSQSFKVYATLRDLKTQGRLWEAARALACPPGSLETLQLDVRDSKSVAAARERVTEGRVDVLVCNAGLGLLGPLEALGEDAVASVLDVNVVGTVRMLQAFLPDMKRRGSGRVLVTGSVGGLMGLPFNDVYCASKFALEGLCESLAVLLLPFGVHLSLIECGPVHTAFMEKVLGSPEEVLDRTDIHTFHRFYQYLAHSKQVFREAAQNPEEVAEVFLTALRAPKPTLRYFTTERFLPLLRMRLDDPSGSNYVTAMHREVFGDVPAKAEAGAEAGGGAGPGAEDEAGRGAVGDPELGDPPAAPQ
The assay can be described thus: Inhibition of 17β-HSD type 1 in MCF-7 cells stably expressing the isoenzyme (tritium labeled estrone conversion, HPLC). The following applies: MCF-7 cells expressing 17β-HSD type 1, 2 nM tritium labeled estrone; for inhibition at 1 µM / inhibition at 10 µM: MCF7; for inhibition at 1 µM / % Inhibition HSD1 1 μM: 1 μM test compound; for inhibition at 1 µM: read-out: % Inhibition HSD1 1 μM; for inhibition at 10 µM / % Inhibition HSD1 10 μM: 10 μM test compound; for inhibition at 10 µM: read-out: % Inhibition HSD1 10 μM. In short, it runs like this:
as §1

In the case of `CCC(C)Cn1c(-c2cc(OC)c(OC)c(OC)c2Br)nc2sc3c(c2c1=O)CCC(Br)(Br)C3=O` (stereo not drawn) [No. 128, 7,7-Dibromo-2-(2-bromo-3,4,5-trimethoxyphenyl)-3-(2-methylbutyl)-6,7-dihydro-3H,5-benzo[4,5]thieno[2,3-d]pyrimidine-4,8-dione], the inhibition at 1 µM is -4.9% in assay [1], 4.7% in assay [2] and 17.9% in assay [3]. Also, the inhibition at 10 µM amounted to 0% in assay [1], 6.3% in assay [2] and 25.9% in assay [3].

With `CCC(C)Cn1c(-c2cc(OC)c(OC)c(OC)c2)nc2sc3c(c2c1=O)CCC(Br)C3=O` (stereo not drawn) [No. 127, 7-Bromo-3-(2-methylbutyl)-2-(3,4,5-trimethoxyphenyl)-6,7-dihydro-3H,5H-benzo[4,5]thieno[2,3-d]pyrimidine-4,8-dione], the figures for the inhibition at 1 µM in assay [1], in assay [2] and in assay [3] were -0.4%, 4.8% and 40.3%, respectively. The inhibition at 10 µM is 5.7% in assay [1], 29.3% in assay [2] and 91.3% in assay [3].

Take `CCC(C)Cn1c(-c2cc(OC)c(OC)c(OC)c2Cl)nc2sc3c(c2c1=O)CCC(Cl)C3=O` (stereo not drawn) [No. 141, 7-Chloro-2-(2-chloro-3,4,5-trimethoxyphenyl)-3-(2-methylbutyl)-6,7-dihydro-3H,5H-benzo[4,5]thieno[2,3-d]pyrimidine-4,8-dione]: the inhibition at 1 µM was 3% in assay [1], 2.7% in assay [2] and 25% in assay [3]. Also, the inhibition at 10 µM in assay [1] is 1.1%; in assay [2], 22.7%; in assay [3], 58.9%.

In the case of `COc1cc(-c2nc3sc4c(Cl)c(C=O)ccc4c3c(=O)n2Cc2ccccc2)c(Cl)c(OC)c1OC` [No. 150, 3-Benzyl-8-chloro-2-(2-chloro-3,4,5-trimethoxyphenyl)-4-oxo-3,4-dihydro-benzo[4,5]thieno[2,3-d]pyrimidine-7-carbaldehyde], the inhibition at 1 µM was 6.4% in assay [1], -1.1% in assay [2] and 0.4% in assay [3]. The inhibition at 10 µM came out at 11.4% in assay [1], 22% in assay [2] and 3.4% in assay [3].

Turning to `COc1cc(-c2nc3sc4c(c3c(=O)n2Cc2ccccc2)CCC(Cl)C4=O)c(Cl)c(OC)c1OC` (stereo not drawn) [No. 123, 3-Benzyl-7-chloro-2-(2-chloro-3,4,5-trimethoxyphenyl)-6,7-dihydro-3H,5H-benzo[4,5]thieno[2,3-d]pyrimidine-4,8-dione], the inhibition at 1 µM was determined as 24.6% in assay [1], 1.3% in assay [2] and 19.4% in assay [3]. The inhibition at 10 µM in assay [1] is 40.2%; in assay [2] it was 29.1%; in assay [3], 62.9%.

Regarding `COc1cc(-c2nc3sc4c(c3c(=O)n2Cc2ccccc2)C(C)CCC4)cc(OC)c1OC` (stereo not drawn) [No. 683, 3-Benzyl-5-methyl-2-(3,4,5-trimethoxyphenyl)-5,6,7,8-tetrahydro-3H-benzo[4,5]thieno[2,3-d]pyrimidin-4-one], the inhibition at 1 µM in assay [1] was 9.2%; in assay [2], 8.1%; in assay [3], 16.8%. Further, the inhibition at 10 µM in assay [1] is 18.8%; in assay [2], 37.7%; in assay [3], 32.9%.

On to `COCc1nc2sc3c(O)cccc3c2c(=O)n1CCc1cccs1` [No. 645], for which, in assay [1], the “% Inhibition HSD2 1 μM” value turned out to be 48.8% and the “% Inhibition HSD2 10 μM” value is listed as 75.5%. Moreover, in assay [2], the “% Inhibition HSD3 1 μM” value is given as 21.7% and the “% Inhibition HSD3 10 μM” value is 22.7%. Further, in assay [3], the “% Inhibition HSD1 1 μM” value is 17.2% and the “% Inhibition HSD1 10 μM” value came to 29.1%.

Take `Cc1nc2sc3c(c2c(=O)n1-c1ccccc1)CCCC3=O` [No. 25, 2-Methyl-3-phenyl-6,7-dihydro-3H,5H-benzo[4,5]thieno[2,3-d]pyrimidine-4,8-dione]: the inhibition at 1 µM in assay [1] was 5.5%; in assay [2], 25.7%; in assay [3], 5.9%. In addition, the values for the inhibition at 10 µM in assay [1], in assay [2] and in assay [3] were 7.9%, 29% and 13.8%, respectively.

Take `COc1cccc(-c2nc3sc4c(c3c(=O)n2Cc2ccccc2)CCCC4=O)c1` [No. 79, 3-Benzyl-2-(m-methoxyphenyl)-6,7-dihydro-3H,5H-benzo[4,5]thieno[2,3-d]pyrimidine-4,8-dione]: the inhibition at 1 µM in assay [1] worked out at 34.4%; in assay [2], 21.9%; in assay [3], 26.6%. In addition, the inhibition at 10 µM stood at 31.6% in assay [1], 59.7% in assay [2] and 39.1% in assay [3].

For the compound `CCCCC(CC)c1nc2sc3c(O)cccc3c2c(=O)n1CCc1ccccc1` (stereo not drawn) [No. 628], in assay [1], the “% Inhibition HSD2 1 μM” value is reported as −0.9% and the “% Inhibition HSD2 10 μM” value was found to be 22.5%. For the same compound, in assay [2], the “% Inhibition HSD3 1 μM” value worked out at 12.4% and the “% Inhibition HSD3 10 μM” value amounted to 36.1%. In assay [3], the “% Inhibition HSD1 1 μM” value is 11.4% and the “% Inhibition HSD1 10 μM” value is recorded as 32.4%.

With `COc1cc(-c2nc3sc4c(OC(C)=O)cccc4c3c(=O)n2Cc2ccccc2)cc(OC)c1OC` [No. 54, Acetic acid 3-benzyl-2-(3,4,5-trimethoxyphenyl)-4-oxo-3,4-dihydro-benzo[4,5]thieno[2,3-d]pyrimidin-8-yl ester], the inhibition at 1 µM came out at 17% in assay [1], 24.6% in assay [2] and 35.4% in assay [3]. Besides, the inhibition at 10 µM was determined as 59.8% in assay [1], 55.2% in assay [2] and 76.7% in assay [3].

Take `O=c1c2c3c(sc2nc(CO)n1Cc1ccccc1)CCCC3` [No. 28, 3-Benzyl-2-hydroxymethyl-5,6,7,8-tetrahydro-3H-benzo[4,5]thieno[2,3-d]pyrimidin-4-one]: the inhibition at 1 µM in assay [1] was 12.9%; in assay [2], 1.9%; in assay [3], 2.6%. The inhibition at 10 µM in assay [1] was 16.3%; in assay [2] it was 16.7%; in assay [3] it was 18%.

As to `CCC(C)Cn1c(-c2cc(OC)c(OC)c(OC)c2)nc2sc3c(O)cccc3c2c1=O` (stereo not drawn) [No. 129, 8-Hydroxy-3-(2-methylbutyl)-2-(3,4,5-trimethoxyphenyl)-3H-benzo[4,5]thieno[2,3-d]pyrimidin-4-one], the inhibition at 1 µM came to 23.9% in assay [1], 34.7% in assay [2] and 46.8% in assay [3]. Further, the inhibition at 10 µM in assay [1] is 53.1%; in assay [2] it was 78.6%; in assay [3], 85.3%.

Regarding `O=C(OCCn1c(-c2cccs2)nc2sc3c(O)cccc3c2c1=O)c1cccs1` [No. 73, Thiophene-2-carboxylic acid 2-(8-hydroxy-4-oxo-2-thiohen-2-yl-4H-benzo[4,5]thieno[2,3-d]pyrimidin-3-yl)-ethyl ester], the results for the inhibition at 1 µM in assay [1], in assay [2] and in assay [3] were 58.3%, 37.9% and 26.8%, respectively. Moreover, the inhibition at 10 µM in assay [1] stood at 90.5%; in assay [2], 82.6%; in assay [3] it was 32.8%.
